Data on six compounds can be found in patent US20140377340A1, “HLA-DR BINDING PEPTIDES AND THEIR USES” (priority 2007, published 2014).

Assay [1] has as its system 15 different HLA-DR molecules. Nature of the assay: HLA-DR binding assays, panel of 15 different HLA-DR molecules (breadth of binding). Conditions: number of the 15 HLA-DR molecules bound (binders: 1000 nM or better).
The target in the next assay is T1, purified HLA DRB1*1101 (Homo sapiens, UniProt P01903+P01911, A100R/A169T/A87E/I96F/K41T/L162R/M171V/P40S/Q125H/Q178H/Q39Y/Q99D/R42S/S66Y/T262R/V115G/W38E).
T1 construct: purified from EBV transformed homozygous cell lines or single MHC allele transfected 721.221, C1R, or fibroblast lines; made in house
Nature of the assay: HLA-DR radioligand binding inhibition assay, DRB1*1101. Conditions: IC50 nM purified HLA DRB1 *1101, purified HLA DRB1*1101. As for the experimental part: (§1) Instead, wells of an opaque white 96-well Optiplate (Packard) are coated with 3 μg (100 μl@ 30 μg/ml) of HLA-specific antibody (Ab) that “capture” complexes of radiolabeled MHC and unlabeled peptide transferred from the molecular binding assay plate in 100 μl of 0.05% NP40/PBS. After a 3-hour incubation period, the supernatant is decanted and scintillation fluid (Microscint 20) added. Captured complexes are then measured on a microplate scintillation and luminescence counter (TopCount NXTTM; Packard).
(§2) HLA-DR purification. Fifteen distinct HLA-DR molecules were used in quantitative assays to measure the binding of peptides to solubilized HLA-DR molecules. […] Briefly, columns of inactivated Sepharose CL4B and Protein A Sepharose were used as pre-columns. HLA-DR molecules were captured by passage of lysates over LB3.1 monoclonal antibody (anti-HLA-DRA) columns. Antibody columns were washed with 10 mM Tris-HCL, pH8.0 with 1% (v/v) NP-40, followed by PBS containing 0.4% (w/v) n-octylglucoside.
(§3) Briefly, 1-10 nM of radiolabeled peptide was co-incubated for 2 days at either room temperature or 37° C. with 1 μM to 1 nM purified HLA-DR molecules in the presence of a cocktail of protease inhibitors. Assays were performed at various pH conditions, ranging from pH 4 to pH 7. […] After incubation, the percentage of HLA-DR-bound radioactivity is determined by capturing HLA-DR/peptide complexes on Optiplates (Packard Instruments, Meriden, Conn.) coated with the LB3.1 antibody and determining bound counts per minute using the TopCount microscintillation counter (Packard Instruments).

The target of the next assay is T2, purified HLA DRB1*0405 (Homo sapiens, UniProt P01903+P01911, A100R/A169T/D86S/F76Y/I96L/K127E/L162R/M171V/N62H/P40V/Q125Y/R42H/S133A/S149N/S66Y/V115G/V209L/W38E).
T2 construct: purified from EBV transformed homozygous cell lines or single MHC allele transfected 721.221, C1R, or fibroblast lines; made in house
Nature of the assay: HLA-DR radioligand binding inhibition assay, DRB1*0405. Particulars: IC50 nM purified HLA DRB1 *0405, purified HLA DRB1*0405. Here is the method: as §1, §2, §3

In another assay the target is T3, purified HLA DRB1*0701 (Homo sapiens, UniProt P01903+P01911, A100R/A102G/A103Q/D57E/D86V/E43K/F76Y/K127E/L162R/M171V/P40G/Q125H/Q99D/R33Q/R42Y/R54Q/S133A/S66F/T210M/V115G/Y107V/Y59L/Y89S).
T3 construct: purified from EBV transformed homozygous cell lines or single MHC allele transfected 721.221, C1R, or fibroblast lines; made in house
Nature of the assay: HLA-DR radioligand binding inhibition assay, DRB1*0701. Conditions: IC50 nM purified HLA DRB1 *0701, purified HLA DRB1*0701. As for the experimental part:
as §1, §2, §3

The next assay concerns the target T4, purified HLA DRB5*0101 (Homo sapiens, UniProt P01903+Q30154).
T4 construct: purified from EBV transformed homozygous cell lines or single MHC allele transfected 721.221, C1R, or fibroblast lines; made in house
Kind of assay: HLA-DR radioligand binding inhibition assay, DRB5*0101. Conditions: IC50 nM purified HLA DRB5 *0101, purified HLA DRB5*0101. Here is the method:
as §1, §2, §3

The target of another assay is T5, purified HLA DRB1*1501 (Homo sapiens, UniProt P01903+P01911).
T5 construct: purified from EBV transformed homozygous cell lines or single MHC allele transfected 721.221, C1R, or fibroblast lines; made in house
Nature of the assay: HLA-DR radioligand binding inhibition assay, DRB1*1501. Here is the method:
as §1, §2, §3

The target in the next assay is T6, purified HLA DRB1*0401 (Homo sapiens, UniProt P01903+P01911, A100K/A169T/F76Y/I96L/K127E/L162R/M171V/N62H/P40V/Q125Y/R42H/S133A/S149N/S66Y/V115G/V209L/W38E).
T6 construct: purified from EBV transformed homozygous cell lines or single MHC allele transfected 721.221, C1R, or fibroblast lines; made in house
Nature of the assay: HLA-DR radioligand binding inhibition assay, DRB1*0401. Particulars: IC50 nM purified HLA DRB1 *0401, purified HLA DRB1*0401. As for the experimental part: as §1, §2, §3

A further assay deals with T7, purified HLA DRB1*0101 (Homo sapiens, UniProt P01903+P01911, A100R/D57E/F55L/F60I/F76Y/I96L/L162R/M171V/P40L/Q125E/R42F/V115G/Y59C).
T7 construct: purified from EBV transformed homozygous cell lines or single MHC allele transfected 721.221, C1R, or fibroblast lines; made in house
Kind of assay: HLA-DR radioligand binding inhibition assay, DRB1*0101. Conditions: IC50 nM purified HLA DRB1 *0101, purified HLA DRB1*0101. Here is the method:
as §1, §2, §3

The next assay concerns the target T8, purified HLA DRB1*1302 (Homo sapiens, UniProt P01903+P01911, A100E/A169T/K41T/L162R/M171V/P40S/Q125H/Q178H/Q39Y/Q99D/R42S/S66N/T262R/V115G/W38E/Y61H).
T8 construct: purified from EBV transformed homozygous cell lines or single MHC allele transfected 721.221, C1R, or fibroblast lines; made in house
Kind of assay: HLA-DR radioligand binding inhibition assay, DRB1*1302. Here is the method:
as §1, §2, §3

T1 sequence (P01903 26-254, other chains not shown): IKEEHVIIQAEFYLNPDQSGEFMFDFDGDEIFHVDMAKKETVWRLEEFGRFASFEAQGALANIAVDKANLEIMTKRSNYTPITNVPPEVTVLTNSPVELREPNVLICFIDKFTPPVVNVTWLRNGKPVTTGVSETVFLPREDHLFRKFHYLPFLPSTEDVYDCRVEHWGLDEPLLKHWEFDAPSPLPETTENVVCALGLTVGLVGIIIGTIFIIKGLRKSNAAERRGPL

Regarding `CC[C@H](C)[C@H](NC(=O)[C@H](CCC(N)=O)NC(=O)[C@H](CCCNC(=N)N)NC(=O)[C@H](CC(N)=O)NC(=O)CNC(=O)[C@H](CC(=O)O)NC(=O)[C@@H](NC(=O)[C@H](CCCNC(=N)N)NC(=O)[C@H](CCC(=O)O)NC(=O)CNC(=O)[C@H](CCCCN)NC(=O)[C@H](Cc1ccc(O)cc1)NC(=O)[C@H](Cc1c[nH]c2ccccc12)NC(=O)[C@H](CO)NC(=O)[C@@H](N)Cc1ccc(O)cc1)C(C)C)C(=O)O` [Peptide 9019.0108], in [1], the “Total XRN” value is 8.
The IC50 is the concentration that inhibits the measured activity by half. As for `CC[C@H](C)[C@H](NC(=O)[C@@H](NC(=O)[C@@H]1CCCN1C(=O)[C@H](C)NC(=O)[C@H](CC(=O)O)NC(=O)[C@@H]1CCCN1C(=O)CNC(=O)[C@H](Cc1ccc(O)cc1)NC(=O)[C@H](CC(C)C)NC(=O)[C@@H](NC(=O)[C@H](CC(N)=O)NC(=O)[C@@H](N)CC(C)C)C(C)C)[C@@H](C)O)C(=O)N[C@@H](CO)C(=O)N1CCC[C@H]1C(=O)N[C@@H](CC(C)C)C(=O)O` [Peptide 9019.0120], the IC50 is over 20000 nM at purified HLA DRB1*1101, over 20000 nM on purified HLA DRB1*0405, 410 nM on purified HLA DRB1*0701 and over 20000 nM at purified HLA DRB5*0101.
Turning to `CC(C)[C@H](NC(=O)[C@H](Cc1ccccc1)NC(=O)[C@H](Cc1c[nH]c2ccccc12)NC(=O)[C@H](CO)NC(=O)[C@H](Cc1ccc(O)cc1)NC(=O)[C@@H](N)CCC(N)=O)C(=O)N[C@@H](CC(N)=O)C(=O)NCC(=O)N[C@H](C(=O)N[C@@H](Cc1ccccc1)C(=O)N[C@@H](CCC(N)=O)C(=O)N[C@@H](CCC(N)=O)C(=O)N[C@@H](CO)C(=O)N[C@H](C(=O)N[C@@H](CCC(N)=O)C(=O)O)[C@@H](C)O)[C@@H](C)O` [Peptide 9019.0122], the results for the IC50 at purified HLA DRB1*1501, on purified HLA DRB1*0401 and on purified HLA DRB1*1101 were over 20000 nM, 21 nM and 230 nM, respectively.
Regarding `CC[C@H](C)[C@H](NC(=O)[C@@H](NC(=O)[C@@H](NC(=O)[C@@H](NC(=O)[C@@H](NC(=O)[C@@H](NC(=O)[C@@H](N)CCCNC(=N)N)[C@@H](C)O)[C@@H](C)O)C(C)C)[C@@H](C)O)[C@@H](C)O)C(=O)N[C@H](C(=O)N[C@H](C(=O)N[C@@H](Cc1ccc(O)cc1)C(=O)N[C@@H](C)C(=O)N[C@@H](CCC(=O)O)C(=O)N1CCC[C@H]1C(=O)N1CCC[C@H]1C(=O)N[C@@H](CCCCN)C(=O)O)C(C)C)[C@@H](C)O` [Peptide 9019.0124], the IC50 on purified HLA DRB1*1501 is 83 nM; on purified HLA DRB1*1101, over 20000 nM; on purified HLA DRB1*0405, 32 nM.
Turning to `CC[C@H](C)[C@H](NC(=O)[C@@H](NC(=O)[C@@H]1CCCN1C(=O)[C@H](CC(=O)O)NC(=O)[C@@H](N)CO)C(C)C)C(=O)N[C@@H](CC(C)C)C(=O)N[C@@H](CC(N)=O)C(=O)N[C@H](C(=O)N[C@@H](CC(C)C)C(=O)N[C@@H](Cc1ccc(O)cc1)C(=O)NCC(=O)N1CCC[C@H]1C(=O)N[C@@H](CC(=O)O)C(=O)N[C@@H](CC(=O)O)C(=O)N1CCC[C@H]1C(=O)O)C(C)C` [Peptide 9019.0127], the IC50 on purified HLA DRB1*1501 was 5700 nM; at purified HLA DRB5*0101 it was over 20000 nM.
On to `CSCC[C@H](NC(=O)[C@H](C)NC(=O)[C@H](CC(C)C)NC(=O)[C@@H]1CCCN1C(=O)[C@H](Cc1ccccc1)NC(=O)[C@@H](NC(=O)[C@H](CCC(=O)O)NC(=O)[C@H](CCC(=O)O)NC(=O)[C@@H](N)CCC(=O)O)C(C)C)C(=O)N[C@@H](CC(N)=O)C(=O)N[C@@H](Cc1ccc(O)cc1)C(=O)N[C@@H](CC(C)C)C(=O)N[C@@H](CC(=O)O)C(=O)N[C@@H](CCCNC(=N)N)C(=O)N[C@@H](Cc1ccccc1)C(=O)O` [Peptide 9019.0152], for which the IC50 on purified HLA DRB1*1501 turned out to be 77 nM; on purified HLA DRB1*0101 it was 850 nM; on purified HLA DRB1*1302, 26 nM.
